Values joined by “and” are separate entries in the source; they are usually repeats but may differ in a detail not shown here. Equal values may be shown once.
Row | melting point | Structure (SMILES)
1 | 100 °C | CCC(C(=O)NC(=O)NC(C)=O)c1ccccc1 (centres undefined) [acetylpheneturide]
2 | 135 °C | CC(=O)Oc1ccccc1C(=O)O [acetylsalicylic acid]
3 | 142 °C | CC(=O)Oc1ccccc1C(=O)O [acetylsalicylicacid]
4 | 176 °C | CC1(c2ccccc2)OC(C(=O)O)=CC1=O (centres undefined) [acifran]
5 | 228 °C | COc1cc(C)c(C=CC(C)=CC=CC(C)=CC(=O)O)c(C)c1C [acitretin]
6 | 268 °C | C1C2CC3CC1CC(C2)C3 [adamantane]
7 | 235 °C | Nc1ncnc2c1ncn2[C@@H]1O[C@H](CO)[C@@H](O)[C@H]1O [adenosine]
8 | 153 °C | O=C(O)CCCCC(=O)O [adipic_acid]
9 | 103 °C | OC[C@@H](O)[C@@H](O)[C@@H](O)CO [adonitol]
10 | 208 °C | CCCSc1ccc2[nH]c(NC(=O)OC)nc2c1 [albendazole]
11 | -23 °C | C=C(C)c1ccccc1 [alpha-methylstyrene]
12 | 32 °C | CC1=CCC(C(C)(C)O)CC1 (stereo not drawn) [alpha-terpineol]
13 | 12 °C | NC(c1ccccc1)c1ccccc1 [aminodiphenylmethane]
14 | 108 °C | Cc1c(N(C)C)c(=O)n(-c2ccccc2)n1C [aminopyrine]
15 | 175 °C | C=C(C)Cn1c(N)cc(=O)n(C)c1=O [amisometradine]
16 | 196 °C | CN(C)CCC=C1c2ccccc2CCc2ccccc21 [amitriptyline]
17 | -100 °C | CCCCCOC(C)=O [amyl_acetate]
18 | 116 °C | CC12CCC=C1C1CCC3CC(=O)CCC3(C)C1CC2 (centres undefined) [androst-14-en-3-one]
19 | -37 °C | COc1ccccc1 [anisole]
20 | 120 °C | c1ccc(CN(CC2=NCCN2)c2ccccc2)cc1 [antazoline]
21 | 113 °C | Cc1cc(=O)n(-c2ccccc2)n1C [antipyrine] [listing 1 of 2 here]
22 | 112 °C | Cc1cc(=O)n(-c2ccccc2)n1C [antipyrine] [listing 2 of 2 here]
23 | 75 °C | CCCCCCCCCCCCCCCCCCCC(=O)O [arachidic acid]
24 | 198 °C | OC[C@H]1O[C@@H](Oc2ccc(O)cc2)[C@H](O)[C@@H](O)[C@@H]1O [arbutin]
25 | 191 °C | O=C1O[C@H]([C@@H](O)CO)C(O)=C1O [ascorbic acid]
26 | 76 °C | CCCCCCCCCCCCCCCCCCCCCC(=O)O [behenic acid]
27 | 51 °C and 49 °C and 46 °C | C(=N\c1ccccc1)/c1ccccc1 [benzalaniline]

Row | melting point | Structure (SMILES)
28 | 126 °C and 127 °C | NC(=O)c1ccccc1 [benzamide]
29 | 164 °C | O=C(Nc1ccccc1)c1ccccc1 [benzanilide]
30 | 160 °C | c1ccc2cc3c(ccc4ccccc43)cc2c1 [benzanthracene]
31 | 124 °C | CCc1oc2ccccc2c1C(=O)c1ccc(O)cc1 [benzarone]
32 | 153 °C | NS(=O)(=O)c1ccccc1 [benzenesulfonamide]
33 | 66 °C | OC(c1ccccc1)c1ccccc1 [benzhydrol]
34 | 39 °C | BrC(c1ccccc1)c1ccccc1 [benzhydryl bromide]
35 | 95 °C | O=C(C(=O)c1ccccc1)c1ccccc1 [benzil]
36 | 44 °C | c1ccc2c(c1)OCCOCCOCCOCCOCCO2 [benzo-18-crown-6]
37 | 239 °C | O=C(O)c1cc2ccccc2s1 [benzo[b]thiophene-2-carboxylic acid]
38 | 128 °C | O=C(O)c1ccc2c(c1)no[n+]2[O-] [benzofuroxan-5-carboxylic acid]
39 | 122 °C (5×) and 123 °C (2×) | O=C(O)c1ccccc1 [benzoic acid]
40 | -13 °C | N#Cc1ccccc1 [benzonitrile]
41 | 182 °C | O=C(c1ccccc1)C(c1ccccc1)(c1ccccc1)c1ccccc1 [benzopinacolone]
42 | 120 °C | O=C(CC(=O)c1ccccc1O)c1ccccc1 [benzoyl(2-hydroxybenzoyl)methane]
43 | 112 °C | CC(=O)OC1C(C)OC(OCc2ccccc2)C(OC(C)=O)C1OC(C)=O (centres undefined) [benzyl 2,3,4-tri-O-acetyl-6-deoxyhexopyranoside]
44 | 187 °C | CC(=O)N[C@H]1[C@H](OC(C)=O)O[C@H](COC(C)=O)[C@@H](OC(C)=O)[C@@H]1OC(C)=O [beta-D-glucosamine pentaacetate]
45 | 200 °C | NCCC(=O)O [beta-alanine]
46 | -8 °C | BrC=Cc1ccccc1 [beta-bromostyrene, cis trans]
47 | 154 °C | c1ccc2c(-c3cccc4ccccc34)cccc2c1 [binaphthyl]
48 | 108 °C | COc1ccc(C(=O)c2ccc(-c3ccccc3)cc2)cc1OC [biphenyl-4-yl(3,4-dimethoxyphenyl)methanone]
49 | 115 °C | c1ccc2c(c1)-c1ccccc1-2 [biphenylene]
50 | 156 °C | CC(C)(c1ccc(O)cc1)c1ccc(O)cc1 [bisphenol a]
51 | 88 °C | CC(C)(C)OC(=O)O/N=C(\C#N)c1ccccc1 [boc-on]
52 | -129 °C | CB(C)Br [bromodimethylborane]
53 | 41 °C | BrC(c1ccccc1)c1ccccc1 [bromodiphenylmethane]
54 | 162 °C | Cc1c(C)c(C)c(Br)c(C)c1C [bromopentamethylbenzene]

Row | melting point | Structure (SMILES)
55 | 201 °C | Cc1c(C2(c3cc(C(C)C)c(O)c(Br)c3C)OS(=O)(=O)c3ccccc32)cc(C(C)C)c(O)c1Br [bromothymol blue]
56 | -44 °C | C[Si](C)(C)Br [bromotrimethylsilane]
57 | 114 °C | BrC(=C(c1ccccc1)c1ccccc1)c1ccccc1 [bromotriphenylethylene]
58 | 154 °C | BrC(c1ccccc1)(c1ccccc1)c1ccccc1 [bromotriphenylmethane]
59 | 160 °C | CCOc1ccc(NC(=O)CC(C)O)cc1 (centres undefined) [bucetin]
60 | 107 °C | CCCCN1CCCCC1C(=O)Nc1c(C)cccc1C (centres undefined) [bupivacaine]
61 | 58 °C | CCCCOC(=O)c1ccc(N)cc1 [butamben]
62 | -97 °C | CCCC=O [butanal]
63 | -5 °C | CCCC(=O)O [butanoic_acid]
64 | 68.5 °C | CCCCOC(=O)c1ccc(O)cc1 [butylparaben]
65 | -5.7 °C | CCCC(=O)O [butyric acid]
66 | 190 °C | NC(=O)N1c2ccccc2C=Cc2ccccc21 [carbamazepine]
67 | 12 °C | B1Oc2ccccc2O1 [catecholborane]
68 | 110 °C | CCN(CC)C(=O)Nc1ccc(OCC(O)CNC(C)(C)C)c(C(C)=O)c1 (centres undefined) [celiprolol]
69 | 151 °C | O=C(N[C@H](CO)[C@H](O)c1ccc([N+](=O)[O-])cc1)C(Cl)Cl [chloramphenicol]
70 | -111 °C | C[SiH](C)Cl [chlorodimethylsilane]
71 | -58 °C | C[Si](C)(C)Cl [chlorotrimethylsilane]
72 | 168 °C | CN(C)[C@@H]1C(O)=C(C(N)=O)C(=O)[C@@]2(O)C(O)=C3C(=O)c4c(O)ccc(Cl)c4[C@@](C)(O)[C@H]3C[C@@H]12 [chlortetracycline]
73 | 80 °C | CC(C)CCCC(C)C1CCC2C3CCC4CCCCC4(C)C3CCC12C (centres undefined) [cholestane]
74 | 148 °C (3×) and 149 °C | CC(C)CCC[C@@H](C)[C@H]1CC[C@H]2[C@@H]3CC=C4C[C@@H](O)CC[C@]4(C)[C@H]3CC[C@]12C [cholesterol]
75 | 255 °C | c1ccc2c(c1)ccc1c3ccccc3ccc21 [chrysene]
76 | -118 °C | CC[C@@H]1CCC[C@@H]1CC [cis-1,2-diethylcyclopentane]
77 | -76 °C | C[C@@H]1CCC[C@H](C)C1 [cis-1,3-dimethylcyclohexane]
78 | -48 °C | ClC/C=C\CCl [cis-1,4-dichloro-2-butene]
79 | -113 °C | C/C=C\Br [cis-1-bromo-1-propene]

Row | Structure (SMILES) | melting point
80 | C=CC=O [acrolein] | -87 °C
81 | N#CCCCCC#N [adiponitrile] | 2 °C
82 | C=CCN [allylamine] | -88 °C
83 | C=CCc1ccccc1 [allylbenzene] | -50 °C
84 | N#CC(c1ccccc1)N1CCOCC1 (stereo not drawn) [alpha-(4-morpholinyl)phenylacetonitrile] | 69 °C
85 | NC1=NCC(c2ccccc2)O1 (centres undefined) [aminorex] | 136 °C
86 | CCC1(CCC(C)C)C(=O)NC(=O)NC1=O [amobarbital] | 156 °C
87 | CC(Cc1ccccc1)NC(C#N)c1ccccc1 (centres undefined) [amphetaminil] | 85 °C
88 | CCOC(=O)C1(c2ccccc2)CCN(CCc2ccc(N)cc2)CC1 [anileridine] | 83 °C
89 | Nc1ccccc1C(=O)O [anthranilic acid] | 147 °C
90 | NCC(CC(=O)O)c1ccc(Cl)cc1 (centres undefined) [baclofen] | 208 °C
91 | CCN(CC)CCOC(=O)C(O)(c1ccccc1)c1ccccc1 [benactyzin] | 51 °C
92 | ClC(Cl)c1ccccc1 [benzal chloride] | -16 °C
93 | [O-][n+]1onc2ccccc21 [benzofuroxan] | 69 °C
94 | O=C(Cl)c1ccccc1 [benzoyl chloride] | -1 °C
95 | N#CCC(=O)c1ccccc1 [benzoylacetonitrile] | 81 °C
96 | ClCc1ccccc1 [benzyl chloride] | -43 °C
97 | ClCc1ccccc1 [benzyl_chloride] | -43 °C
98 | CCCCC(CC)COC(=O)CCCCC(=O)OCC(CC)CCCC (centres undefined) [bis(2-ethylhexyl) adipate] | -67 °C
99 | CCBr [bromoethane] | -119 °C
100 | CCCCc1ccccc1 [butylbenzene] | -88 °C
101 | CCCC=NO [butyraldoxime] | -29 °C
102 | CCCC#N [butyronitrile] | -112 °C
103 | ClC(Cl)(Cl)Cl [carbon tetrachloride] | -23 °C (4×) and -22.9 °C
104 | CCCC(C)(COC(N)=O)COC(=O)NC(C)C (centres undefined) [carisoprodol] | 92 °C
105 | OC(O)C(Cl)(Cl)Cl [chloral hydrate] | 57 °C
106 | O=C1OC(=O)C2C1C1(Cl)C(Cl)=C(Cl)C2(Cl)C1(Cl)Cl (centres undefined) [chlorendic anhydride] | 237 °C
107 | O=C(CCl)OC(=O)CCl [chloroacetic anhydride] | 58 °C
108 | ClC(Br)Br [chlorodibromomethane] | -22 °C
109 | C/C=C\c1ccccc1 [cis-1-phenyl-1-propene] | -62 °C
